Measured values published in patent publication US20100076092A1, “LIPID-DERIVED NANOPARTICLES FOR BRAIN-TARGETED DRUG DELIVERY” (priority 2006, published 2010).

Assay: Biodistribution / brain delivery of drug in mice after intravenous drug-loaded nanoparticles
Type: in vivo
Details: mouse, BMS, 12 mg/kg intravenously through tail vein in mice, HPLC, mean±SD (n=6), read-out: drug levels in the brain
Experimental: The brain delivery of BMS was assessed one hour following intravenous administration of brain lipid-coated nanoparticles in mice (FIG. 1). BMS in nanoparticles with or without brain-derived lipids or equivalent amount in solution (12 mg/kg) was injected intravenously in mice through tail vein, and drug levels in different tissues at the end of 1 hr was analyzed by HPLC. Data as mean±SD (n=6). * p<0.05. […] Data as mean±SD (n=4 and 3). * p<0.05.

concentration at 1 h: 2360 ± 580 ng/g
SMILES: Cc1noc(NS(=O)(=O)c2cccc3c(N(C)C)cccc23)c1C [solution control, BMS 182874]
